Patent US7183267B2, “β-lactamase inhibitors and methods of use thereof” (priority 2003, dated 2007)
In brackets after ≈: the same amount, converted by molar mass.

What was measured:
[1] = target: β-lactamase mutant M69I (Escherichia coli, UniProt P62593, M67I); type: biochemical; settings: number higher than 1 reflects a loss of potency against mutant
Description: (§1) The inhibition of TEM-1 β-lactamase was determined spectrophotometrically. B-lactamase activity was followed by measuring the hydrolysis of nitrocefin, [3-(2,4-dinitrostyryl)-(6R, 7R)-7-(2-thienylacetamido)-ceph-3-em-4-carboxylic acid, E-isomer], (Calbiochem, San Diego, Calif., USA) at 486 nm. Inhibition assays were performed at 25° C. in 50 mM sodium phosphate, 5% DMSO, pH 7.0. […] Inhibitor was added to the enzyme and incubated for ten minutes before the addition of substrate. Inhibition constants (Ki) for the inhibitors are obtained at the desired temperature and solvent conditions by measuring the rate of substrate hydrolysis at increasing amounts of inhibitors.
(§2) Three of the most important mutations are M69I, R244S and E104K.

[2] = target: β-lactamase mutant E104K (Escherichia coli, UniProt P62593, E102K); type: biochemical; settings: number higher than 1 reflects a loss of potency against mutant
Description: as §1, §2

[3] = target: β-lactamase mutant R244S (Escherichia coli, UniProt P62593, R241S); type: biochemical; settings: number higher than 1 reflects a loss of potency against mutant
Description: as §1, §2

[4] = target: T1, TEM-1 β-lactamase (Escherichia coli, UniProt P62593); assay: TEM-1 β-lactamase inhibition assay (nitrocefin hydrolysis, 486 nm); type: biochemical
Description: as §1
The competitive inhibition of β-lactamase was determined spectrophotometrically using a Varian (Walnut Creek, Calif.) Cary 100 UV-Visible spectrophotometer. β-lactamase activity was followed by measuring the hydrolysis of nitrocefin, [3-(2,4-dinitrostyryl)-(6R, 7R)-7-(2-thienylacetamido)-ceph-3-em-4-carboxylic acid, E-isomer], (Calbiochem, San Diego, Calif.) at 486 nm. Inhibition assays were performed at 25° C. in 50 mM sodium phosphate, 5% DMSO, pH 7.0. […] Penicillin G (Sigma, St. Louis, Mo.) was also used as a substrate to determine KM and kcat.
Inhibitor was added to protein and incubated for ten minutes before the addition of substrate. Inhibition constants were determined by measuring the loss of P-lactamase activity with increasing inhibitor concentrations and fitting the data to standard equations for competitive inhibition.
(§3) These methods can also be used to express and assay recombinant TEM-1 variant of β-lactamase.

[5] = target: β-lactamase wt (Escherichia coli, UniProt P62593); assay: Isothermal titration calorimetry, binding enthalpy, wild type
Description: (§4) The binding of the compounds of the present invention to β-lactamase was also measured by isothermal titration calorimetry.
(§5) These experiments, in combination with the inhibition assays, indicate that the compounds identified in this disclosure bind to the wild type as well as drug resistant beta lactamases with favorable binding enthalpies. This is a very important characteristic from the point of view of further optimization since it facilitates the achievement of extremely high affinities and low susceptibilities to drug resistant mutations and naturally occurring polymorphisms.
(§6) Isothermal titration calorimetry was performed on a high-precision VP-ITC titration calorimeter (Microcal Inc., Northampton, Mass.). β-Lactamase solutions were titrated with inhibitors in 50 mM sodium phosphate, 2% DMSO, pH 7.0, with β-lactamase concentrations ranging from 15 to 25 μM and inhibitor concentrations ranging from 300 to 1000 μM. The heat evolved from each injection was obtained by integrating the calorimetric signal. Heat of binding was obtained as the difference between the heat of reaction and the heat of inhibitor dilution. Data were analyzed using Origin 7.0 (OriginLab Corporation, Northampton, Mass.).

[6] = target: β-lactamase E104K (Escherichia coli, UniProt P62593, E102K); assay: Isothermal titration calorimetry, binding enthalpy, E104K mutant
Description: as §4, §5, §6

[7] = target: β-lactamase R244S (Escherichia coli, UniProt P62593, R241S); assay: Isothermal titration calorimetry, binding enthalpy, R244S mutant
Description: as §4, §5, §6

[8] = target: β-lactamase M69I (Escherichia coli, UniProt P62593, M67I); assay: Isothermal titration calorimetry, binding enthalpy, M69I mutant
Description: as §4, §5, §6

[9] = system: methicillin resistant S. aureus ATCC 33591 (MRSA-ATCC); assay: MIC assay, broth microdilution, MRSA-ATCC; type: cell-based; settings: for MIC: Staphylococcus aureus, 24 h
Description: (1) methicillin resistant S. aureus ATCC 33591 (MRSA-ATCC). This strain was obtained from American Type Culture Collection (ATCC), Manassas, Md.;
(§7) The strains were processed according to procedures recommended by ATCC, or procedures that are routinely used. Single colonies of each organism were picked for purification to generate pure working cultures. Prior to each experiment each strain was subcultured on a fresh Mueller-Hinton agar plate (MHA).
(§8) Inocula for the MIC assays were prepared by transferring a tiny portion of one colony from a MHA plate to 2 ml of Mueller-Hinton broth (MHB) such that the estimated cell density was about 10^7 colony forming unit (CFU)/ml. This cell suspension was then further diluted 10-fold (to 10^6 CFU/ml) by transferring the 2 ml cell suspension to 18 ml of MHB. Addition of 50 μl of this dilute cell suspension to 50 μl of growth medium yielded the desired cell density, namely about 5×10^4 CFU/well, or 5×10^5 CFU/ml.
(§9) The MIC value of oxacillin was determined using the broth microdilution procedure recommended by the National Committee of Clinical Laboratory Standards (NCCLS, 2000).
(§10) The MIC experiments were performed in duplicate in 96-well microtiter plates using MHB. A stock solution of 2.6 mg/0.5 ml was prepared in dimethylsulfoxide (DMSO). A total of 8 two-fold serial dilutions were made with DMSO. Initial oxacillin doses used were (μg/ml): 64, 32, 16, 8, 4, 2, 1, and 0.5. Doses were adjusted in the confirmatory experiment, if needed, in order to establish an actual MIC value.
(§11) To each well of a 96 well microtiter plate was added 47.5 μl of MHB. A volume of 2.5 μl of each dilution of oxacillin was then transferred to appropriate wells containing the medium. All wells, except the sterility control wells, were then inoculated with 50 μl of a diluted cell suspension to give a final volume of 100 μl and a final cell density of 5×10^4 CFU/well. The volume in the sterility control wells was adjusted to 100 μl with MHB. A sterile pipette tip was used to mix the contents of each well (one tip was used going from the low to the high concentration in the same column). The microtiter plates were covered with the lids and were placed in large Stratagene Big Blue plates (Cat. # 400041). Four large kimwipes moistened with tap water were placed near the edges of the Stratagene plates to prevent evaporation of the medium. The microtiter plates were incubated for at least 24 hours at 35° C. The plates were then evaluated for growth in each well. Controls included: medium sterility and negative control (medium and bacteria only).
(§12) The procedure used to determine the antimicrobial activity of the compounds of the present invention was identical to the broth microdilution procedure described above with the exception of the preparation of the stock solutions. Stock solution at concentration of 40.96 mg/0.5 ml was prepared in DMSO for each of the compounds. A total of 8 two-fold dilutions were then made in DMSO. A volume of 2.5 μl of each dilution was delivered to appropriate wells. The initial doses used were (μg/ml): 512, 256, 128, 64, 32, 16, 8, and 4.
(§13) A numerical code was used to evaluate the extent of growth as indicated below. • 0: absence of growth • 1: barely visible (faint) growth • 2: fair growth but less than the negative solvent control • 3: growth is equivalent to the negative solvent control.
(§14) The lowest dose at which no visible growth is observed was determined to be the MIC value.
(§15) MIC assays were performed with oxacillin and the four compounds. Each of the compounds was tested at the following 8 doses (μg/ml): 512, 256, 128, 64, 32, 16, 8, and 4. Oxacillin was tested at the following 8 doses (μg/ml): 64, 32, 16, 8, 4, 2, 1, and 0.5.

[10] = system: methicillin sensitive S. aureus ATCC 25923 (MSSA); assay: MIC assay, broth microdilution, MSSA; type: cell-based; settings: for MIC: Staphylococcus aureus, 24 h
Description: (3) methicillin sensitive S. aureus ATCC 25923 (MSSA). This strain was obtained from ATCC and was used as a control.
as §7, §8, §9, §10, §11, §12, §13, §14, §15

[11] = system: methicillin resistant S. aureus from Stanford University Hospital (MRSA-SU); assay: MIC assay, broth microdilution, MRSA-SU; type: cell-based; settings: for MIC: Staphylococcus aureus, MRSA, 24 h
Text: (2) methicillin resistant S. aureus from Stanford University Hospital Clinical Microbiology/Virology Laboratory (MRSA-SU). […] Such Staphylococci are also resistant to all penicillins, and all cephalosporins, in addition to all β-lactamase inhibitor combinations (including ampicillin/sulbactarn, amoxicillin/clavulanic acid, piperacillin/tazobactam), imipenem, and meropenem; and
as §7, §8, §9, §10, §11, §12, §13, §14, §15

[12] = target: T1, TEM-1 β-lactamase; assay: Isothermal titration calorimetry, binding to TEM-1 β-lactamase (Example 17); settings: ITC
Description: as §6, §3
Also shown are the results obtained for β-lactamase variant TEM-1.

[13] = Ki, 25° C., 50 mM sodium phosphate, 5% DMSO, pH 7.0, enzyme 5 nM, nitrocefin 167 μM
[14] = Ki from Lineweaver-Burke Analysis, values in parenthesis, Lineweaver-Burke analysis

| SMILES | Loss of potency: ratio of the inhibitory constant between mutant and wild type (Potencywt/Potencymutant), M69I [1] | Loss of potency: ratio of the inhibitory constant between mutant and wild type (Potencywt/Potencymutant), E104K [2] | Loss of potency: ratio of the inhibitory constant between mutant and wild type (Potencywt/Potencymutant), R244S [3] | Ki [4, 13] | ΔH wt [5] | ΔH E104K [6] | Ki [4, 14] | ΔH R244S [7] | ΔH M69I [8] | other results |
| --- | --- | --- | --- | --- | --- | --- | --- | --- | --- | --- |
| O=C(Oc1ccc([N+](=O)[O-])cc1)c1cc(B(O)O)cc([N+](=O)[O-])c1 [Compound (1a), 3-(4-Nitrophenoxycarbonyl)-5-nitrophenylboronic acid] | 0.43 | 0.39 | 0.44 | 80 ± 9 µM |  |  |  |  |  | melting point: 205 to 207 °C |
| O=C(Oc1ccccc1Cl)c1cc(B(O)O)cc([N+](=O)[O-])c1 [Compound (1j), 3-(2-Chlorophenoxycarbonyl)-5-nitrophenylboronic acid] | 0.33 | 0.15 | 0.37 | 28 ± 2 µM | -2145 cal/mol | -2756 cal/mol | 1.31 µM | -6877 cal/mol | -1693 cal/mol |  |
| O=C(O)c1cccc(B(O)O)c1 [Compound F1203] |  |  |  |  |  |  |  |  |  | bacteriotoxicity at high dose ([9]; 512 μl/ml, MRSA-ATCC): not bacteriotoxic; MIC [9]: > 512 µg/mL; bacteriotoxicity at high dose ([10]; 512 μl/ml, MSSA): not bacteriotoxic; MIC [10]: > 512 µg/mL; bacteriotoxicity at high dose ([11]; 512 μl/ml, MRSA-SU): not bacteriotoxic; MIC [11]: > 512 µg/mL |
| O=C(Oc1ccccc1[N+](=O)[O-])c1cc(B(O)O)cc([N+](=O)[O-])c1 [Compound F1204] |  |  |  |  |  |  |  |  |  | MIC [9]: 256 µg/mL (≈ 771 µM); MIC [10]: 512 µg/mL (≈ 1540 µM); MIC [11]: 512 µg/mL |
| O=C(Oc1ccc2sc(=O)oc2c1)c1cc(B(O)O)cc([N+](=O)[O-])c1 [Compound (1f), 3-(2-OxO-benzo[1,3]oxathiol-6-oxycarbonyl)-5-nitrophenylboronic acid] | 0.47 | 0.37 | 0.42 | 33 ± 4 µM |  |  |  |  |  |  |
| COC(=O)c1cc(B(O)O)cc([N+](=O)[O-])c1 [Compound F1212] |  |  |  |  | -4700 cal/mol | -4500 cal/mol |  | -8900 cal/mol | -3300 cal/mol | Ki ([4]; 25° C., 50 mM sodium phosphate, 5% DMSO, pH 7.0, enzyme 5 nM, nitrocefin 167 μM): 95 µM |
| N#Cc1ccccc1OC(=O)c1cc(B(O)O)cc([N+](=O)[O-])c1 [Compound (1g), 3-(2-Cyanophenoxycarbonyl)-5-nitrophenylboronic acid] | 0.40 | 0.32 | 0.26 | 37 ± 3 µM | -5520 cal/mol | -6397 cal/mol | 1.37 µM | -8200 cal/mol | -2460 cal/mol |  |
| O=C(Oc1c(Cl)cccc1[N+](=O)[O-])c1cc(B(O)O)cc([N+](=O)[O-])c1 [Compound (1h), 3-(2-Chloro-6-nitrophenoxycarbonyl)-5-nitrophenylboronic acid] | 1.2 | 0.77 | 0.86 | 9.5 ± 0.8 µM | -1140 cal/mol | -1896 cal/mol | 0.65 µM | -11931 cal/mol | -953 cal/mol | ΔG [12]: -6614 cal/mol; ΔH [12]: -1140 cal/mol; −TΔS [12]: -5474 cal/mol; Ki ([4]; Ki, TEM-1 β-lactamase): 9.5 µM |
